# Test system: Hh-signalling cascade
# Test: Inhibition of SHh-induced alkaline phosphatase in C3H10T1/2 cells (Hh-signalling cascade inhibition)
# Type: cell-based
# Conditions: Mus musculus, C3H 10T1/2, half maximal inhibition of SHh (0.3 μg/ml) stimulation of cell alkaline phosphatase
# Description: C3H10T1/2 Cells were used for identification of inhibitors of SHh-protein signaling cascade. SHh-protein activates C3H10T1/2 cells, that leads to their osteogenic differentiation [1) Kinto N., Iwamoto M., Enomoto-Iwamoto M., Noji S., Ohuchi H., Yoshioka H., Kataoka H., Wada Y., Yuhao G., Takahashi H. E., Yoshiki S., Yamaguchi A. Fibroblasts expressing Sonic hedgehog induce osteoblast differentiation and ectopic bone formation. FEBS Lett. 1997; 404(2-3): 319-23. 2) Spinella-Jaegle S., Rawadi G., Kawai S., Gallea S., Faucheu C., Mollat P., Courtois B., Bergaud B., Ramez V., Blanchet A. M., Adelmant G., Baron R., Roman-Roman S. Sonic hedgehog increases the commitment of pluripotent mesenchymal cells into the osteoblastic lineage and abolishes adipocytic differentiation. J. Cell Sci. 2001; 114(Pt 11): 2085-94] and, in particular, to expression enhancement of alkaline phosphatase enzyme.
# The cells were cultivated in DMEM medium with 10% embryonal calfish serum in incubator at 37° C., 100% humidity and 5% CO2 content. The cells were placed in 384-well plates and left for night. On the next day the tested compounds in concentration of 10 μM were added to the cells, incubated for 30 min, then recombinant (R & D Systems, USA) SHh protein in concentration of 0.3 μg/ml was added and incubation was continued for 3 days. Cells with DMSO instead of a test compound and cells without SHh protein were used as test control. For determination of the cell alkaline phosphatase activity the cells were lysed in the buffer containing 0.2% Triton-X100, lisates were incubated together with proluminescent substrate CSPD (Applied Biosystems, USA) and the resultant luminescence was measured using reader VICTOR^2V (PerkinElmer, USA).
# The ability of the compounds to inhibit Hh-signalling cascade was determined using C3H10T1/2 cells in 384-well plates as described in example 1. The compounds were added in triplicates in various concentrations, prepared by multiple dilution of starting solutions (concentration dependences of cell alkaline phosphatase inhibition induced by the addition of tested compounds are shown in FIG. 1). Activity of the compounds was characterized by their concentrations produced half maximal inhibition of stimulation of cell alkaline phosphatase SHh (IC50).
row,Structure (SMILES),IC50
1,"O=C(Nc1ccc(-c2cn3ccccc3n2)cc1)c1cccs1 [III-1004, N-(4-(Imidazo[1,2-a]pyridin-2-yl)phenyl)thiophen-2-carboxamide]",< 5000 nM
2,"O=C(Nc1ccc(-c2cn3ccccc3n2)cc1)c1ccc(Cl)cc1 [III-1005, 4-Chloro-N-(4-(imidazo[1,2-a]pyridin-2-yl)phenyl)benzamide]",< 5000 nM
3,"COc1ccc(C(=O)Nc2ccc(-c3cn4ccccc4n3)cc2)cc1 [III-1006, N-(4-(Imidazo[1,2-a]pyridin-2-yl)phenyl)-4-methoxybenzamide]",< 5000 nM
4,"CC(=O)Nc1ccc(-c2cn3ccccc3n2)cc1 [III-1007, N-(4-(Imidazo[1,2-a]pyridin-2-yl)phenyl)acetamide]",> 50000 nM
5,"Cc1cccn2cc(-c3ccc(NC(=O)Cc4ccccc4)cc3)nc12 [III-1013, N-[4-(8-Methylimidazo[1,2-a]pyridin-2-yl)phenyl]-2-phenylacetamide]",< 5000 nM
6,"O=C(Nc1ccc(-c2cn3cccnc3n2)cc1)C1CCCC1 [IV-1002, Cyclopentanecarboxylic acid (4-imidazo[1,2-a]pyrimidin-2-ylphenyl)amide]",< 50000 nM
7,"CCn1c(C(=O)N2CCC(C(=O)N3CCN(c4ccccc4)CC3)CC2)cc2sccc21 [V-1008, (4-Ethyl-4H-thieno[3,2-b]pyrrol-5-yl)[4-(4-phenyl-piperazine-1-carbonyl)piperidine-1-yl]methanone]",< 50000 nM
8,"O=C(NCc1ccccn1)C1CCN(C(=O)c2cc3sccc3n2Cc2ccc(F)cc2F)CC1 [V-1030, 1-[4-(2,4-Difluorobenzyl)-4H-thieno[3,2-b]pyrrole-5-carbonyl]piperidine-4-carboxylic acid [(pyridin-2-yl)methyl]amide]",< 5000 nM
9,O=C(NCc1cccnc1)C1CCN(C(=O)c2cc3sccc3n2Cc2ccc(F)cc2)CC1 [V-1031],< 5000 nM
10,"O=C(NCc1ccc(F)cc1)C1CCN(C(=O)c2cc3sccc3n2Cc2ccc(F)cc2)CC1 [V-1037, 1-[4-(4-Fluorobenzyl)-4H-thieno[3,2-b]pyrrole-5-carbonyl]piperidine-4-carboxylic acid [(4-fluorophenyl)methyl]amide]",< 50000 nM
11,"O=C(NCCN1CCOCC1)C1CCN(C(=O)c2cc3sccc3n2Cc2ccc(F)cc2F)CC1 [V-1041, 1-[4-(2,4-Difluorobenzyl)-4H-thieno[3,2-b]pyrrole-5-carbonyl]piperidine-4-carboxylic acid (2-N-morpholinoethyl)amide]",< 500 nM
12,"O=C(NCCCN1CCCC1)C1CCN(C(=O)c2cc3sccc3n2Cc2ccc(F)cc2)CC1 [V-1042, 1-[4-(4-Fluorobenzyl)-4H-thieno[3,2-b]pyrrole-5-carbonyl]piperidine-4-carboxylic acid (3-N-pyrrolidinopropyl)amide]",< 500 nM
13,"O=C(NCc1ccccn1)C1CCN(C(=O)c2cc3sccc3n2Cc2ccc(Cl)cc2)CC1 [V-1045, 1-[4-(4-Chlorobenzyl)-4H-thieno[3,2-b]pyrrole-5-carbonyl]piperidine-4-carboxylic acid [(pyridin-2-yl)methyl]amide]",< 5000 nM
14,"O=C(NCC1CCCO1)C1CCN(C(=O)c2cc3sccc3n2Cc2ccc(Cl)cc2)CC1 (stereo not shown) [V-1046, 1-[4-(4-Chlorobenzyl)-4H-thieno[3,2-b]pyrrole-5-carbonyl]piperidine-4-carboxylic acid [(tetrahydrofuran-2-yl)methyl]amide]",< 5000 nM
15,"COCCCNC(=O)C1CCN(C(=O)c2cc3sccc3n2Cc2ccc(Cl)cc2)CC1 [V-1047, 1-[4-(4-Chlorobenzyl)-4H-thieno[3,2-b]pyrrole-5-carbonyl]piperidine-4-carboxylic acid (3-methoxypropyl)amide]",< 500 nM
16,"CN1CCN(C(=O)C2CCN(C(=O)c3cc4sccc4n3Cc3ccc(F)cc3)CC2)CC1 [V-1048, [4-(4-Fluorobenzyl)-4H-thieno[3,2-b]pyrrol-5-yl]-[4-(4-methylpiperazine-1-carbonyl)piperidin-1-yl]methanone]",< 500 nM
17,"CN1CCN(C(=O)C2CCN(C(=O)c3cc4sccc4n3Cc3cccc(Cl)c3)CC2)CC1 [V-1049, [4-(3-Chlorobenzyl)-4H-thieno[3,2-b]pyrrol-5-yl]-[4-(4-methylpiperazine-1-carbonyl)piperidin-1-yl]methanone]",< 500 nM
18,"CN1CCN(C(=O)C2CCN(C(=O)c3cc4sccc4n3Cc3cccc(F)c3)CC2)CC1 [V-1050, [4-(3-Fluorobenzyl)-4H-thieno[3,2-b]pyrrol-5-yl]-[4-(4-methylpiperazine-1-carbonyl)piperidin-1-yl]methanone]",< 500 nM

# The next lines start with the values.
row,IC50,Structure (SMILES)
1,< 500 nM,"O=C(Nc1ccc(-c2cn3ccccc3n2)cc1)c1ccncc1 [III-1003, N-(4-(Imidazo[1,2-a]pyridin-2-yl)phenyl)isonicotinamide]"
2,< 500 nM,"O=C(Nc1cccc(-c2cn3ccccc3n2)c1)c1ccc(F)cc1 [III-1015, 4-Fluoro-N-(3-(imidazo[1,2-a]pyridin-2-yl)phenyl)benzamide]"
3,< 500 nM,"COc1ccc(C(=O)Nc2cccc(-c3cn4ccccc4n3)c2)cc1 [III-1018, N-(3-(Imidazo[1,2-a]pyridin-2-yl)phenyl)-4-methoxybenzamide]"
4,< 500 nM,"COc1ccc(C(=O)Nc2cccc(-c3cn4c(C)cccc4n3)c2)cc1 [III-1019, 4-Methoxy-N-[3-(5-methylimidazo[1,2-a]pyridin-2-yl)phenyl]benzamide]"
5,< 500 nM,"Cc1nc(-c2ccccc2)sc1C(=O)Nc1cccc(-c2cn3ccccc3n2)c1 [III-1030, 4-Methyl-2-phenylthiazol-5-carboxylic acid [3-(imidazo[1,2-a]pyridin-2-yl)phenyl]amide]"
6,< 500 nM,"COc1ccccc1C(=O)Nc1ccc(-c2cn3cccnc3n2)cc1 [IV-1004, N-(4-(Imidazo[1,2-a]pyrimidin-2-yl)phenyl)-2-methoxybenzamide]"
7,< 500 nM,"CCN(CC)CCCNC(=O)C1CCN(C(=O)c2cc3sccc3n2Cc2ccc(F)cc2)CC1 [V-1032, 1-[4-(4-Fluorobenzyl)-4H-thieno[3,2-b]pyrrole-5-carbonyl]piperidine-4-carboxylic acid 3-(diethylamino)propylamide]"
8,< 500 nM,"Cc1ccc(CNC(=O)C2CCN(C(=O)c3cc4sccc4n3Cc3ccc(F)cc3)CC2)cc1 [V-1033, 1-[4-(4-Fluorobenzyl)-4H-thieno[3,2-b]pyrrole-5-carbonyl]piperidine-4-carboxylic acid [(4-methylphenyl)methyl]amide]"
9,< 500 nM,"Cc1ccc(NC(=O)C2CCN(C(=O)c3cc4sccc4n3Cc3ccc(F)cc3)CC2)c(C)c1 [V-1034, 1-[4-(4-Fluorobenzyl)-4H-thieno[3,2-b]pyrrole-5-carbonyl]piperidine-4-carboxylic acid (2,4-dimethylphenyl)amide]"
10,< 500 nM,"Cc1ccc(NC(=O)C2CCN(C(=O)c3cc4sccc4n3Cc3ccc(F)cc3)CC2)cc1C [V-1035, 1-[4-(4-Fluorobenzyl)-4H-thieno[3,2-b]pyrrole-5-carbonyl]piperidine-4-carboxylic acid (3,4-dimethylphenyl)amide]"
11,< 500 nM,"COCCNC(=O)C1CCN(C(=O)c2cc3sccc3n2Cc2ccc(F)cc2)CC1 [V-1036, 1-[4-(4-Fluorobenzyl)-4H-thieno[3,2-b]pyrrole-5-carbonyl]piperidine-4-carboxylic acid (2-methoxyethyl)amide]"
12,< 500 nM,"CCN1CCCC1CNC(=O)C1CCN(C(=O)c2cc3sccc3n2Cc2ccc(F)cc2)CC1 (stereo not shown) [V-1038, 1-[4-(4-Fluorobenzyl)-4H-thieno[3,2-b]pyrrole-5-carbonyl]piperidine-4-carboxylic acid [(1-ethylpyrrolidin-2-yl)methyl]amide]"
13,< 500 nM,"CCOCCCNC(=O)C1CCN(C(=O)c2cc3sccc3n2Cc2ccc(F)cc2)CC1 [V-1039, 1-[4-(4-Fluorobenzyl)-4H-thieno[3,2-b]pyrrole-5-carbonyl]piperidine-4-carboxylic acid (3-ethoxypropyl)amide]"
14,< 500 nM,"COCCCNC(=O)C1CCN(C(=O)c2cc3sccc3n2Cc2ccc(F)cc2)CC1 [V-1040, 1-[4-(4-Fluorobenzyl)-4H-thieno[3,2-b]pyrrole-5-carbonyl]piperidine-4-carboxylic acid (3-methoxypropyl)amide]"

# Same assay, conditions: half maximal inhibition of SHh (0.3 μg/ml) stimulation of cell alkaline phosphatase
row,IC50,Structure (SMILES)
1,< 5000 nM,"O=C(c1cc2sccc2n1Cc1ccc(Cl)cc1)N1CCC(C(=O)N2CCCC2)CC1 [V-1027, [4-(4-Chlorobenzyl)-4H-thieno[3,2-b]pyrrol-5-yl]-[4-(pyrrolidin-1-carbonyl)piperidin-1-yl]methanone]"
2,< 500 nM,"O=C(c1cc2sccc2n1Cc1ccc(Cl)cc1)N1CCC(C(=O)N2CCCC2)CC1 [V-1044, 1-[4-(4-Chlorobenzyl)-4H-thieno[3,2-b]pyrrole-5-carbonyl]piperidine-4-carboxylic acid tetramethylenamide]"

# Reference: patent US8486945B2, “Heterocyclic inhibitors of an Hh-signal cascade, medicinal compositions based thereon and methods for treating diseases caused by the aberrant activity of an Hh-signal system” (priority 2007, dated 2013)
